From the NIST ThermoML archive (doi:10.1016/j.fluid.2014.11.026)
“And” between values parts separate entries of the source, which are not always exact repeats. Equal entries are not always repeated. ± gives the expanded uncertainty stated by the source.

Details: Liquid, Closed cell (Static) method

**Q.** Which “vapor or sublimation pressure” value (284.62 K) does the source give for `C=CC(C)(O)CCC=C(C)C` (stereo not drawn) [3,7-dimethyl-1,6-octadien-3-ol] here?
**A.** 0.006422 ± 0.00028 kPa

**Q.** And the “vapor or sublimation pressure” value (286.91 K)?
**A.** 0.008001 ± 0.00034 kPa

**Q.** And the “vapor or sublimation pressure” value (289.26 K)?
**A.** 0.01007 ± 0.00042 kPa

**Q.** And the “vapor or sublimation pressure” value (291.61 K)?
**A.** 0.01262 ± 0.00052 kPa

**Q.** What about the “vapor or sublimation pressure” value (294.02 K) of the same compound?
**A.** 0.01583 ± 0.00059 kPa

**Q.** And the “vapor or sublimation pressure” value (296.39 K)?
**A.** 0.01969 ± 0.00066 kPa and 0.01967 ± 0.00066 kPa

**Q.** What about the “vapor or sublimation pressure” value (298.77 K) of the same compound?
**A.** 0.0242 ± 0.00077 kPa

**Q.** And the “vapor or sublimation pressure” value (301.14 K)?
**A.** 0.02977 ± 0.00085 kPa

**Q.** And the “vapor or sublimation pressure” value (301.2 K)?
**A.** 0.02999 ± 0.00085 kPa

**Q.** And the “vapor or sublimation pressure” value (303.59 K)?
**A.** 0.03677 ± 0.00095 kPa

**Q.** And the “vapor or sublimation pressure” value (305.95 K)?
**A.** 0.04473 ± 0.0012 kPa

**Q.** What about the “vapor or sublimation pressure” value (305.99 K) of the same compound?
**A.** 0.04494 ± 0.0012 kPa

**Q.** What about the “vapor or sublimation pressure” value (308.38 K) of the same compound?
**A.** 0.05475 ± 0.0013 kPa

**Q.** What about the “vapor or sublimation pressure” value (310.74 K) of the same compound?
**A.** 0.0661 ± 0.0015 kPa

**Q.** And the “vapor or sublimation pressure” value (310.78 K)?
**A.** 0.06649 ± 0.0016 kPa

**Q.** And the “vapor or sublimation pressure” value (313.18 K)?
**A.** 0.08076 ± 0.0019 kPa

**Q.** And the “vapor or sublimation pressure” value (316.23 K)?
**A.** 0.1024 ± 0.0023 kPa

**Q.** And the “vapor or sublimation pressure” value (321.01 K)?
**A.** 0.1464 ± 0.0028 kPa

**Q.** What about the “vapor or sublimation pressure” value (325.83 K) of the same compound?
**A.** 0.2062 ± 0.0036 kPa

**Q.** And the “vapor or sublimation pressure” value (330.68 K)?
**A.** 0.2877 ± 0.0046 kPa

**Q.** And the “vapor or sublimation pressure” value (335.48 K)?
**A.** 0.394 ± 0.006 kPa

**Q.** What about the “vapor or sublimation pressure” value (340.29 K) of the same compound?
**A.** 0.5345 ± 0.0078 kPa

**Q.** And the “vapor or sublimation pressure” value (342.71 K)?
**A.** 0.6231 ± 0.0092 kPa

**Q.** And the “vapor or sublimation pressure” value (345.69 K)?
**A.** 0.7489 ± 0.011 kPa

**Q.** What about the “vapor or sublimation pressure” value (348.12 K) of the same compound?
**A.** 0.8693 ± 0.012 kPa

**Q.** And the “vapor or sublimation pressure” value (350.51 K)?
**A.** 0.9921 ± 0.014 kPa

**Q.** And the “vapor or sublimation pressure” value (352.9 K)?
**A.** 1.136 ± 0.016 kPa

**Q.** Which results are given for `CCCCC(=O)CCCC` [5-nonanone]?
**A.** vapor or sublimation pressure (283.83 K): 0.02528 ± 0.00079 kPa; vapor or sublimation pressure (283.85 K): 0.02535 ± 0.00079 kPa; vapor or sublimation pressure (286.19 K): 0.03083 ± 0.00086 kPa; vapor or sublimation pressure (288.55 K): 0.03722 ± 0.00095 kPa; vapor or sublimation pressure (290.9 K): 0.04494 ± 0.0011 kPa; vapor or sublimation pressure (293.32 K): 0.05439 ± 0.0013 kPa; vapor or sublimation pressure (293.35 K): 0.0544 ± 0.0013 kPa; vapor or sublimation pressure (295.75 K): 0.06539 ± 0.0015 kPa; vapor or sublimation pressure (298.1 K): 0.07793 ± 0.0017 kPa; vapor or sublimation pressure (298.12 K): 0.0783 ± 0.0017 kPa; vapor or sublimation pressure (300.56 K): 0.09349 ± 0.002 kPa; vapor or sublimation pressure (302.92 K): 0.1107 ± 0.0023 kPa; vapor or sublimation pressure (302.94 K): 0.111 ± 0.0023 kPa; vapor or sublimation pressure (305.38 K): 0.1321 ± 0.0025 kPa; vapor or sublimation pressure (307.75 K): 0.1553 ± 0.0028 kPa; vapor or sublimation pressure (307.77 K): 0.1559 ± 0.0028 kPa; vapor or sublimation pressure (310.19 K): 0.1839 ± 0.0033 kPa; vapor or sublimation pressure (312.99 K): 0.2228 ± 0.0037 kPa; vapor or sublimation pressure (313.02 K): 0.2225 ± 0.0037 kPa; vapor or sublimation pressure (315 K): 0.2527 ± 0.0041 kPa; vapor or sublimation pressure (315.38 K): 0.2591 ± 0.0041 kPa; vapor or sublimation pressure (317.8 K): 0.3037 ± 0.0048 kPa; vapor or sublimation pressure (317.81 K): 0.3041 ± 0.0048 kPa; vapor or sublimation pressure (320.16 K): 0.3527 ± 0.0054 kPa; vapor or sublimation pressure (320.18 K): 0.3545 ± 0.0054 kPa; vapor or sublimation pressure (322.58 K): 0.4099 ± 0.0062 kPa; vapor or sublimation pressure (322.62 K): 0.4118 ± 0.0062 kPa; vapor or sublimation pressure (324.99 K): 0.476 ± 0.007 kPa; vapor or sublimation pressure (325.05 K): 0.4746 ± 0.007 kPa; vapor or sublimation pressure (327.44 K): 0.5474 ± 0.0081 kPa; vapor or sublimation pressure (327.49 K): 0.5494 ± 0.0081 kPa; vapor or sublimation pressure (329.9 K): 0.6318 ± 0.0091 kPa; vapor or sublimation pressure (329.95 K): 0.638 ± 0.0092 kPa; vapor or sublimation pressure (332.32 K): 0.7257 ± 0.01 kPa; vapor or sublimation pressure (332.35 K): 0.7296 ± 0.01 kPa; vapor or sublimation pressure (334.71 K): 0.8311 ± 0.012 kPa; vapor or sublimation pressure (334.74 K): 0.8375 ± 0.012 kPa; vapor or sublimation pressure (337.13 K): 0.9562 ± 0.013 kPa; vapor or sublimation pressure (337.15 K): 0.9511 ± 0.013 kPa

**Q.** Which results are given for `CC(=O)CCC=C(C)C` [6-methyl-5-hepten-2-one]?
**A.** vapor or sublimation pressure (283.85 K): 0.05465 ± 0.0013 kPa; vapor or sublimation pressure (283.86 K): 0.05482 ± 0.0013 kPa and 0.05462 ± 0.0013 kPa; vapor or sublimation pressure (283.92 K): 0.05498 ± 0.0013 kPa; vapor or sublimation pressure (286.18 K): 0.06551 ± 0.0015 kPa; vapor or sublimation pressure (286.23 K): 0.06608 ± 0.0015 kPa; vapor or sublimation pressure (286.24 K): 0.06599 ± 0.0015 kPa; vapor or sublimation pressure (288.57 K): 0.07931 ± 0.0017 kPa; vapor or sublimation pressure (288.59 K): 0.07922 ± 0.0017 kPa; vapor or sublimation pressure (288.61 K): 0.07945 ± 0.0017 kPa; vapor or sublimation pressure (288.69 K): 0.07994 ± 0.0017 kPa; vapor or sublimation pressure (290.97 K): 0.09477 ± 0.002 kPa; vapor or sublimation pressure (291 K): 0.09535 ± 0.002 kPa; vapor or sublimation pressure (291.02 K): 0.09517 ± 0.002 kPa; vapor or sublimation pressure (293.47 K): 0.1142 ± 0.0024 kPa; vapor or sublimation pressure (293.49 K): 0.1148 ± 0.0024 kPa; vapor or sublimation pressure (295.81 K): 0.1358 ± 0.0025 kPa; vapor or sublimation pressure (295.85 K): 0.1362 ± 0.0025 kPa; vapor or sublimation pressure (295.88 K): 0.1365 ± 0.0025 kPa; vapor or sublimation pressure (298.28 K): 0.1619 ± 0.003 kPa; vapor or sublimation pressure (298.31 K): 0.1623 ± 0.003 kPa; vapor or sublimation pressure (300.61 K): 0.1903 ± 0.0033 kPa; vapor or sublimation pressure (300.65 K): 0.1915 ± 0.0033 kPa; vapor or sublimation pressure (300.69 K): 0.1919 ± 0.0033 kPa; vapor or sublimation pressure (303.12 K): 0.2264 ± 0.0038 kPa; vapor or sublimation pressure (303.15 K): 0.2273 ± 0.0038 kPa; vapor or sublimation pressure (305.45 K): 0.2654 ± 0.0043 kPa; vapor or sublimation pressure (305.48 K): 0.2664 ± 0.0043 kPa; vapor or sublimation pressure (305.54 K): 0.2673 ± 0.0044 kPa; vapor or sublimation pressure (307.99 K): 0.3137 ± 0.0049 kPa; vapor or sublimation pressure (308.02 K): 0.3147 ± 0.0049 kPa; vapor or sublimation pressure (310.3 K): 0.3637 ± 0.0057 kPa; vapor or sublimation pressure (310.36 K): 0.3668 ± 0.0057 kPa; vapor or sublimation pressure (310.42 K): 0.3665 ± 0.0057 kPa; vapor or sublimation pressure (312.88 K): 0.4306 ± 0.0065 kPa; vapor or sublimation pressure (312.9 K): 0.4306 ± 0.0065 kPa; vapor or sublimation pressure (315.16 K): 0.4939 ± 0.0075 kPa; vapor or sublimation pressure (315.23 K): 0.4983 ± 0.0074 kPa; vapor or sublimation pressure (315.28 K): 0.4979 ± 0.0075 kPa; vapor or sublimation pressure (317.72 K): 0.5789 ± 0.0085 kPa; vapor or sublimation pressure (317.75 K): 0.5801 ± 0.0086 kPa; vapor or sublimation pressure (320.01 K): 0.6665 ± 0.009 kPa; vapor or sublimation pressure (320.07 K): 0.6684 ± 0.0097 kPa; vapor or sublimation pressure (320.13 K): 0.6684 ± 0.009 kPa; vapor or sublimation pressure (322.5 K): 0.769 ± 0.011 kPa; vapor or sublimation pressure (322.52 K): 0.7718 ± 0.011 kPa; vapor or sublimation pressure (322.56 K): 0.7724 ± 0.011 kPa; vapor or sublimation pressure (324.84 K): 0.8831 ± 0.013 kPa; vapor or sublimation pressure (324.89 K): 0.8852 ± 0.013 kPa; vapor or sublimation pressure (324.93 K): 0.8864 ± 0.013 kPa; vapor or sublimation pressure (327.28 K): 1.015 ± 0.014 kPa; vapor or sublimation pressure (327.32 K): 1.015 ± 0.014 kPa; vapor or sublimation pressure (327.36 K): 1.016 ± 0.014 kPa
